# In patent publication US9078894B2 (AB SCIENCE, priority 2011, dated 2015):
# Values joined by “and” are separate entries in the source; they are usually repeats but may differ in a detail not shown here. Equal entries are not always repeated.
# Legend:
# [1] = test system: Balb/c male mice sensitized with ovalbumine; test: Murine model of allergic airway inflammation (ovalbumine); type: in vivo, mouse; settings: oral, twice daily, 25 and 100 mg/kg/day; sensitized and challenged animals
# Protocol: Balb/c male mice aged 9 weeks were sensitized with ovalbumine (50 μg) adsorbed with Al(OH)3 diluted in physiological saline (0.9% NaCl) by intraperitoneal injection on day 1 and 7. Sensitization was followed by intranasal challenges with ovalbumine (10 μg) diluted in 0.9% NaCl every day from day 18 to day 21. Non sensitized control animals received intraperitoneal injections of vehicle alone followed by intranasal challenges with NaCl 0.9% alone at the same time than the sensitized animals. […] On day 22, airway hyper responsiveness (AHR) was measured by the enhanced pause (PenH) in the whole body plethysmograph. The bronchoconstrictive response was evaluated as the response to a concentration-dependent methacholine (MCh) aerosol exposure. Mice were first exposed to a saline aerosol then to an aerosol generated from increasing concentrations of methacholine (0.05, 0.1, 0.2, 0.3, and 0.4M). Infiltration of inflammatory cells was measured immediately after assessment of AHR to methacholine via collection of bronchoalveolar lavage (BAL) fluid by lavage of the whole lung with physiological saline containing 1.6 mM EDTA. Cells were counted in the BAL and cell types identified by morphological criteria after Hemacolor staining.
# [2] = test system: experimentally asthmatic cats; test: Experimental feline asthma, randomized blinded placebo-controlled study; type: in vivo, cat
# Text: Twelve experimentally asthmatic cats were enrolled in a randomized, blinded, placebo-controlled study. […] Exclusion criteria were evidence of cardiac insufficiency, evidence of gastric bleeding, major surgery within 2 weeks of treatment initiation, life expectancy less than 3 months, lactating or pregnant cats or cats intended for breeding, previous history of kidney disease or previous known episodes of proteinuria, administration of food listed on the “recall list” issued by FDA or vaccination within 4 weeks prior to enrollment, and any concurrent medical illness. […] Bronchoalveolar lavage fluid (BALF) eosinophil percentages and airway hyper-reactivity, determined by changes in ventilator mechanics in response to methacholine (MCh) challenge were evaluated at baseline, weeks 4, 8 and 12. Results of the MCh challenge were reported as the effective concentration of MCh that increased baseline airway resistance by 200% (EC200Raw) and the end-inspiratory pressure after a breath hold (plateau pressure, Pplat). Treatment was interrupted or discontinued if predetermined adverse events were noted. Cats naïve to Bermuda grass allergen (BGA) confirmed by intradermal skin testing (IDST) and with normal BALF underwent allergen sensitization. IDST was re-evaluated to confirm allergen sensitization. Next, allergen challenge of BGA as an aerosol in awake, spontaneously breathing cats was performed. Allergen solution (100 μg of BGA dissolved in PBS) was aerosolized into a clear chamber using an air compressor attached to a nebulizer. Seven challenges were administered over the next 2 weeks, at which time BALF was repeated to confirm development of eosinophilic airway inflammation. Bronchoalveolar lavage fluid was collected in a blind fashion at baseline and weeks 4, 8, and 12 of the study. Collection of BALF was obtained after Mch challenge and under the same anesthesia. A total nucleated cell count was performed on each BALF sample using a coulter counter. Cytological evaluation and differential cell counts were performed on samples prepared by cytocentrifugation. Differential cell counts (200 nucleated cells per slide) on modified Wright's stained slides were performed, and cell percentages were reported.
# [3] = test system: asthmatic patients with severe persistent asthma; test: Phase 2a 16-week double-blind placebo-controlled study in severe persistent asthma; type: in vivo, human; design: Oral corticosteroids absolute change (W 4 to W 16), Mean ± SD / Oral corticosteroids absolute change (W 4 to W 16), Median: unit not given here
# Text: The trial consisted of three phases: during the first 4 weeks, the corticosteroid dose remained constant; during the following 8 weeks, oral corticosteroid doses were decreased each week according to a predefined schedule, until weaning or an asthma exacerbation occurred; the final 4 weeks were a stabilization period for observation. Asthma exacerbation was defined as a deterioration of asthma symptoms requiring an emergency visit, a hospitalization or an increase in oral corticosteroid treatment. In case an asthma exacerbation occurred, oral corticosteroid therapy was resumed at the level prior to this occurrence following the acute treatment phase. Patients underwent a visit every 2 weeks during the first 4 weeks, then a weekly visit for the following 12 weeks. A possible treatment extension was part of the study protocol in case of clinical benefit, based on the investigators assessment. In these extension phases the follow-up of patients took place every 4 weeks during the first 3 months and then every 12 weeks until the end of the study. The primary objective was to measure the reduction of oral corticosteroids doses after 16 weeks of treatment. Therefore, efficacy and safety measurements were assessed at enrolment of each patient in the study prior to the administration of the investigational compound and then at week 2, and weekly from weeks 4 through to 16. The secondary objectives were to monitor the change from baseline in symptomatic scores (asthma control questionnaire, ACQ), the FEV1 and rescue medication intake when necessary. Patients, 18 to 75 years of age with a diagnosis of asthma for ≧3 years and severe uncontrolled disease for ≧1 year, and followed up at the same centre for ≧1 year, were eligible for this study. […] Exclusion criteria included: (a) any other significant respiratory or cardiac disease; (b) worsening of asthma symptoms requiring treatment with additional oral corticosteroids within 4 weeks of screening; (c) any other infections; (d) a history of acute infection requiring hospitalization or treatment with antibiotics within 2 weeks of screening; (e) rare variants of severe asthma such as Churg-Strauss syndrome or allergic bronchopulmonary aspergillosis; […] A treatment wash-out period of 4 months at time of enrolment was required for prior use of omalizumab.
# [4] = test system: human cord blood mast cells; settings: cited from earlier work
# patients [5] = settings: estimated exposure of about 57,300 patients, June 2003 through December 2006; cited from earlier work
# patients [6] = settings: 20 of 4127 patients; cited from earlier work
# [7] = ITT population, 3.0 mg/kg/day (N = 12)
# [8] = ITT population, 4.5 mg/kg/day (N = 11)
# [9] = ITT population, 6.0 mg/kg/day (N = 10)
# [10] = ITT population, all masitinib (N = 33)
# [11] = subpopulation initially treated with >15 mg prednisone daily, 3.0 mg/kg/day (N = 9)
# [12] = subpopulation initially treated with >15 mg prednisone daily, 4.5 mg/kg/day (N = 4)
# [13] = subpopulation initially treated with >15 mg prednisone daily, 6.0 mg/kg/day (N = 6)
# [14] = subpopulation initially treated with >15 mg prednisone daily, all masitinib (N = 19)
compound,measurement,setting,value
"Cc1ccc(NC(=O)c2ccc(CN3CCN(C)CC3)cc2)cc1Nc1nc(-c2cccnc2)cs1 [masitinib, 4-(4-methylpiperazin-1-ylmethyl)-N-[4-methyl-3-(4-pyridin-3ylthiazol-2-ylamino)phenyl]benzamide]",Penh (airway hyper responsiveness),[1],a decrease of Penh
same,number of eosinophils in the bronchoalveolar lavage fluid,[1],marked decrease
same,"proteinuria, cats affected","[2]; 50 mg/day, p=0.002 vs placebo",every cat
same,group mean±SD % BALF eosinophils,"[2]; after 4 weeks of therapy, 50 mg orally once daily, p=0.023 vs placebo",7±9%
same,Pplat with MCh challenge,"[2]; after 4 weeks of therapy, no significant increase in masitinib-treated cats (p=0.32)",blunting of airflow limitation
same,"group mean±SD EC200Raw, difference between groups","[2]; at baseline or after 4 weeks of therapy, MCh challenge",no significant difference
same,permanent discontinuation due to proteinuria,[2]; at or after week 4,four
same,temporary drug interruption followed by dose reduction due to proteinuria,[2]; at or after week 4,two
same,other side effects suspected of being associated with masitinib administration,"[2]; infrequent overall, no specific therapy required","vomiting, diarrhea, Heinz bodies, hypoalbuminemia, hypoglobulinemia, hypercholesterolemia and ALT increase"
same,masitinib-treated cats with % BALF eosinophils <17%,[2]; week 4,five of six
same,"% BALF eosinophils, values of individual cats","[2]; week 4, the five masitinib-treated cats below 17%",1% (2×) and 2% and 3.5% and 15%
same,"change in Pplat with MCh challenge versus saline aerosol, compared between treatment groups",[2]; week 4 compared to baseline,significant (p=0.033) decrease
same,ACQ score change,[3]; 3.0 mg/kg dose,0.56 units
same,ACQ score change,[3]; 4.5 mg/kg dose,1.57 units
same,ACQ score change,[3]; 6 mg/kg dose,0.89 units
same,improvement of ACQ score at W16,"[3]; ITT analysis, all masitinib-treated patients, p<0.001",0.99 unit
same,"Oral corticosteroids absolute change (W 4 to W 16), Mean ± SD",[3]; [7],−10.7 ± 19.2
same,"Oral corticosteroids absolute change (W 4 to W 16), Median",[3]; [7],−14.0
same,"Patients weaned at W 16, number (percent)",[3]; [7],5 (41.7%)
same,"Oral corticosteroids absolute change (W 4 to W 16), Mean ± SD",[3]; [8],0.2 ± 26.8
same,"Oral corticosteroids absolute change (W 4 to W 16), Median",[3]; [8],−7.5
same,"Patients weaned at W 16, number (percent)",[3]; [8],2 (25.0%)
same,"Oral corticosteroids absolute change (W 4 to W 16), Mean ± SD",[3]; [9],−12.2 ± 18.5
same,"Oral corticosteroids absolute change (W 4 to W 16), Median",[3]; [9],−11.3
same,"Patients weaned at W 16, number (percent)",[3]; [9],3 (37.5%)
same,"Oral corticosteroids absolute change (W 4 to W 16), Mean ± SD",[3]; [10],−8.0 ± 21.3
same,"Oral corticosteroids absolute change (W 4 to W 16), Median",[3]; [10],−12.3
same,"Patients weaned at W 16, number (percent)",[3]; [10],10 (35.7%)
same,masitinib-related AE: diarrhea,[3]; all masitinib-treated patients,18.2%
same,masitinib-related AE: fatigue,[3]; all masitinib-treated patients,12.1%
same,masitinib-related AE: nausea,[3]; all masitinib-treated patients,30.3%
same,masitinib-related AE: peripheral edema,[3]; all masitinib-treated patients,18.2%
same,masitinib-related AE: pruritus,[3]; all masitinib-treated patients,12.1%
same,masitinib-related AE: skin rash,[3]; all masitinib-treated patients,30.3%
same,masitinib-related AE: vomiting,[3]; all masitinib-treated patients,12.1%
same,patients who experienced at least one AE,"[3]; all patients treated with masitinib, regardless of dose",93.9%
same,change in lung function,[3]; in this trial,no significant change in lung function
same,"asthma exacerbation rate in patients experiencing at least one exacerbation, decrease","[3]; masitinib group, all doses merged",42.4%
same,rate of asthma exacerbation compared to placebo,[3]; masitinib-treated patients,significantly reduced
same,percent reduction in oral corticosteroid doses,"[3]; patients receiving >15 mg equivalent prednisone per day at baseline, all masitinib-treated patients",52±53%
same,"patients weaned off oral corticosteroids at W16, number","[3]; patients receiving >15 mg equivalent prednisone per day at baseline, masitinib treatment groups",six
same,"Oral corticosteroids absolute change (W 4 to W 16), Mean ± SD",[3]; [11],−17 ± 9
same,"Oral corticosteroids absolute change (W 4 to W 16), Median",[3]; [11],−20
same,"Oral corticosteroids percent change (W 4 to W 16), Mean ± SD",[3]; [11],−68 ± 38%
same,"Oral corticosteroids percent change (W 4 to W 16), Median",[3]; [11],−81%
same,"Patients weaned at W 16, number (percent)",[3]; [11],4 (44.4%)
same,"Oral corticosteroids absolute change (W 4 to W 16), Mean ± SD",[3]; [12],−7 ± 8
same,"Oral corticosteroids absolute change (W 4 to W 16), Median",[3]; [12],−5
same,"Oral corticosteroids percent change (W 4 to W 16), Mean ± SD",[3]; [12],−33 ± 42%
same,"Oral corticosteroids percent change (W 4 to W 16), Median",[3]; [12],−19%
same,"Patients weaned at W 16, number (percent)",[3]; [12],0 (0.0%)
same,"Oral corticosteroids absolute change (W 4 to W 16), Mean ± SD",[3]; [13],−14 ± 22
same,"Oral corticosteroids absolute change (W 4 to W 16), Median",[3]; [13],−16
same,"Oral corticosteroids percent change (W 4 to W 16), Mean ± SD",[3]; [13],−40 ± 78%
same,"Oral corticosteroids percent change (W 4 to W 16), Median",[3]; [13],−69%
same,"Patients weaned at W 16, number (percent)",[3]; [13],2 (33.3%)
same,"Oral corticosteroids absolute change (W 4 to W 16), Mean ± SD",[3]; [14],−14 ± 14
same,"Oral corticosteroids absolute change (W 4 to W 16), Median",[3]; [14],−15
same,"Oral corticosteroids percent change (W 4 to W 16), Mean ± SD",[3]; [14],−52 ± 53%
same,"Oral corticosteroids percent change (W 4 to W 16), Median",[3]; [14],−65%
same,FcεRI-mediated degranulation,[4],inhibition of FcεRI-mediated degranulation
omalizumab: an anti-immunoglobulin E antibody (anti-IgE) approved for severe allergic asthma,frequency of anaphylaxis attributed to omalizumab use,patients [5],at least 0.2%
same,malignant neoplasms observed in omalizumab-treated patients,patients [6],0.5%
